Some test systems named below: ACHN renal; DU-145 prostate; LOX IMVI melanoma; M14 melanoma; NCI-H226 lung; NCI-H522 lung; SK-OV-3 ovarian; SNB-75 CNS.
Common to all, as to assay: NCI-60 cell line screen, 48 h

Molecules are shown by their SMILES.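 The compound was tested at five concentrations on cells cultured in 96-well plates, with a 48-hour exposure period. At the TGI there is no net growth.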

On to `NS(=O)(=O)c1cc2c(cc1Cl)NC(CCC(=O)O)=NS2(=O)=O`, for which the TGI in the experiment on ACHN renal, in the experiment on DU-145 prostate, in the experiment on LOX IMVI melanoma, with M14 melanoma, with NCI-H226 lung and in the experiment with NCI-H522 lung was more than 100 µM in each case. Also, the TGI in the experiment with SK-OV-3 ovarian and with SNB-75 CNS was more than 100 µM each time.

Consider `CC1OC(OC2C(OC(=O)[C@]34CCC(C)(C)C[C@H]3C3=CC[C@@H]5[C@@]6(C)CC[C@H](OC7OC(C(=O)O)C(O)C(O)C7O)C(C)(C)[C@@H]6CC[C@@]5(C)[C@]3(C)C[C@H]4O)OCC(O)C2O)C(O)C(OC2OCC(O)(CO)C2O)C1OC1OCC(O)C(O)C1O` (stereo partly drawn), for which the TGI is 17.4 µM in the experiment on ACHN renal; 25.8 µM in the experiment with DU-145 prostate; 26.6 µM with LOX IMVI melanoma; 23.3 µM in the experiment with M14 melanoma; 28.3 µM in the experiment on NCI-H226 lung; 16.5 µM in the experiment on NCI-H522 lung. For the same molecule, the TGI is 29.3 µM in the experiment with SK-OV-3 ovarian and 31.8 µM in the experiment on SNB-75 CNS.

For `CCOC(=O)Cn1c(=O)c2nc(SC)sc2n(-c2ccccc2)c1=O`, the TGI with ACHN renal, with M14 melanoma, with NCI-H226 lung and in the experiment on SNB-75 CNS was more than 100 µM each time.

On to `CCOC(=O)c1nc2c(nc1C(=O)OCC)C(=O)c1ccccc1C2=O`, for which the TGI with ACHN renal is 2.02 µM; in the experiment with DU-145 prostate it was 2.48 µM; in the experiment with M14 melanoma, 1.55 µM; in the experiment with NCI-H226 lung it was 1.5 µM; with NCI-H522 lung, 4.23 µM; with SK-OV-3 ovarian, 5.97 µM. Further, the TGI with SNB-75 CNS came out at 2.12 µM.

For the molecule `Cc1ccc2c(c1)C(=O)C1(Cc3ccccc3C1=O)C2` (stereo not drawn), the TGI in the experiment with ACHN renal, in the experiment on DU-145 prostate, in the experiment with LOX IMVI melanoma, in the experiment on M14 melanoma, in the experiment on NCI-H226 lung and in the experiment on NCI-H522 lung was more than 100 µM each time. Further, the TGI in the experiment on SK-OV-3 ovarian and in the experiment with SNB-75 CNS was more than 100 µM in each case.

Turning to `CC(=O)Nc1nc(C#N)[nH]c1C#N`, the TGI with ACHN renal, with DU-145 prostate, in the experiment on LOX IMVI melanoma, in the experiment on M14 melanoma, in the experiment on NCI-H226 lung and with NCI-H522 lung was more than 100 µM each time. For the same molecule, the TGI with SK-OV-3 ovarian and with SNB-75 CNS was more than 100 µM throughout.

For `O=C(O)/C=C(/C(=O)O)C12CCN3CC4=CCOC5CC(=O)NC1C5C4CC32` (stereo not drawn), the TGI in the experiment with ACHN renal, in the experiment on DU-145 prostate, with LOX IMVI melanoma, in the experiment with M14 melanoma, in the experiment with NCI-H226 lung and in the experiment on NCI-H522 lung was more than 100 µM each time. Further, the TGI in the experiment on SK-OV-3 ovarian and in the experiment with SNB-75 CNS was more than 100 µM throughout.

For `Cc1c(S(=O)(=O)c2ccccc2)c(N)n(CCN(C)C)c1C`, the TGI with ACHN renal, in the experiment on DU-145 prostate, with M14 melanoma, in the experiment on NCI-H226 lung, in the experiment with NCI-H522 lung and in the experiment with SK-OV-3 ovarian was more than 100 µM each time. In addition, the TGI in the experiment on SNB-75 CNS was more than 100 µM.

Turning to `COc1ccc2c(C)cc(=O)oc2c1OC`, the TGI with ACHN renal, with DU-145 prostate, in the experiment on LOX IMVI melanoma, in the experiment with M14 melanoma, in the experiment with NCI-H226 lung and in the experiment on SK-OV-3 ovarian was more than 100 µM each time. The TGI with SNB-75 CNS is more than 100 µM.

Consider `O=[N+]([O-])c1ccc(Oc2c(Cl)cc(S(=O)(=O)/N=C(\NO)Nc3ccc(Cl)cc3)cc2Cl)cc1`, for which the TGI with ACHN renal was 23.8 µM; with DU-145 prostate, 29.3 µM; in the experiment on LOX IMVI melanoma it was 24.9 µM; in the experiment on M14 melanoma it was 25.6 µM; in the experiment with NCI-H226 lung it was 35.3 µM; in the experiment on NCI-H522 lung, 12.7 µM. In addition, the TGI in the experiment with SK-OV-3 ovarian was 31.2 µM.

For the molecule `CC1CCC(C(=O)O)(C(Br)C(=O)O)CC1` (stereo not drawn), the TGI with ACHN renal, with DU-145 prostate, in the experiment with LOX IMVI melanoma, in the experiment with M14 melanoma, in the experiment on NCI-H226 lung and in the experiment with SNB-75 CNS was more than 100 µM each time.

Consider `Cc1cc(N(CCOS(C)(=O)=O)CCOS(C)(=O)=O)ccc1C=O`, for which the TGI is 58.7 µM in the experiment on LOX IMVI melanoma, 30.5 µM with M14 melanoma and 0.379 µM with NCI-H522 lung.

For `CCOP(=O)(OCC)C(c1ccc(F)cc1)N(C(=O)NC(F)(F)F)c1ccc(OC)cc1` (stereo not drawn), the TGI in the experiment on ACHN renal, with DU-145 prostate, in the experiment with LOX IMVI melanoma, with M14 melanoma, with NCI-H226 lung and in the experiment on NCI-H522 lung was more than 100 µM each time. The TGI in the experiment on SNB-75 CNS is more than 100 µM.

In the case of `CSC(=S)N/N=C(\C)c1ccc(S(=O)(=O)N(C)c2ccccc2)cc1`, the TGI in the experiment on ACHN renal, in the experiment with DU-145 prostate, in the experiment with LOX IMVI melanoma, with M14 melanoma, in the experiment on NCI-H226 lung and in the experiment with SK-OV-3 ovarian was more than 100 µM throughout. In the experiment with SNB-75 CNS, this molecule displayed a TGI of more than 100 µM.

In the case of `CCOC(=O)c1c(C)nc2c3ccccc3c(C#N)c(C)n12`, the TGI was more than 100 µM in the experiment on ACHN renal; more than 100 µM in the experiment on DU-145 prostate; more than 100 µM in the experiment on LOX IMVI melanoma; more than 100 µM in the experiment with NCI-H226 lung; 89.3 µM in the experiment with NCI-H522 lung; 51.3 µM in the experiment with SK-OV-3 ovarian. In the experiment with SNB-75 CNS, the TGI stood at 75.8 µM.

As to `Cc1cc2c3c(nc4ccccc42)C(=O)c2ccccc2-c3n1`, the TGI with ACHN renal was more than 100 µM; with DU-145 prostate it was more than 100 µM; in the experiment on M14 melanoma, 27.3 µM; in the experiment on NCI-H226 lung, 67 µM; in the experiment on NCI-H522 lung it was 14.4 µM; in the experiment on SK-OV-3 ovarian, 84 µM. This molecule also came in with a TGI with SNB-75 CNS of 29 µM.

Take `O=C1c2ccccc2-c2c1c(-c1ccc(F)cc1)nc1ccc3ccccc3c21`: the TGI in the experiment with ACHN renal, in the experiment on DU-145 prostate, in the experiment on LOX IMVI melanoma, in the experiment with M14 melanoma, in the experiment on NCI-H226 lung and in the experiment on SK-OV-3 ovarian was more than 100 µM in each case. In the experiment on SNB-75 CNS, this molecule gave a TGI of more than 100 µM.

Turning to `O=C(O)CCC(=O)OC1N=C(c2ccccc2Cl)c2cc([N+](=O)[O-])ccc2NC1=O` (stereo not drawn), the TGI with ACHN renal, in the experiment on DU-145 prostate, with LOX IMVI melanoma, in the experiment on M14 melanoma, in the experiment with NCI-H522 lung and in the experiment on SK-OV-3 ovarian was more than 100 µM throughout. The same molecule yielded a TGI in the experiment with SNB-75 CNS of more than 100 µM.

(Values after PubChem BioAssay (NCI).)
